Test results taken from patent US20040127549A1, “Cyclic 2-carbonylaminoketones as inhibitors of cruzipain and other cysteine proteases” (priority 2001, published 2004).

Columns and labels:
Cruzipain = target: T1, Cruzipain (Trypanosoma cruzi, UniProt P25779); test: Trypanosoma cruzi cruzipain peptidase activity assay (Ki); assay type: biochemical; conditions: wild-type cruzipain, pH 6.75, 25±1° C.
T1 construct: Wild-type cruzipain, derived from Trypanosoma cruzi Dm28 epimastigotes, was obtained from Dr. Julio Scharfstein; tissue Dr. Julio Scharfstein (Instituto de Biofisica Carlos Chagas Filho, Universidade Federal do Rio de Janeiro); host or cells: Trypanosoma cruzi Dm28 epimastigotes
T1 sequence (P25779 123-467): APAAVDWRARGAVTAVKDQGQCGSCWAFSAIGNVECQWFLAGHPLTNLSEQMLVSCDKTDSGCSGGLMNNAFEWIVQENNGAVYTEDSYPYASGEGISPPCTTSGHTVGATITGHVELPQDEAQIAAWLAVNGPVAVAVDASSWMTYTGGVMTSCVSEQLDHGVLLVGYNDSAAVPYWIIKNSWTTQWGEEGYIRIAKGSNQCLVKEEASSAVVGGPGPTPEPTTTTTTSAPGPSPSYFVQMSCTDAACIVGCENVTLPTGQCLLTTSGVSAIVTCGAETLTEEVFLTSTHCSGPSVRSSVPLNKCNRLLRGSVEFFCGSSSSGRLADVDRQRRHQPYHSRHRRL
Method: (§1) Assay protocols were based on literature precedent (Tablel; Barrett, A. J., Rawlings, N. D. and Woessner, J. F., 1998, Handbook of Proteolytic Enzymes, Academic Press, London and references therein) and modified as required to suit local assay protocols. Enzyme was added as required to initiate the reaction and the activity, as judged by the change in fluorescence upon conversion of substrate to product, was monitored over time. All assays were carried out at 25±1° C.
Wild-type cruzipain, derived from Trypanosoma cruzi Dm28 epimastigotes, was obtained from Dr. Julio Scharfstein (Instituto de Biofisica Carlos Chagas Filho, Universidade Federal do R10 de Janeiro, R10 de Janeiro, Brazil). Activity assays were carried out in 100 mM sodium phosphate, pH 6.75 containing 1 mM EDTA and 10 mM L-cysteine using 2.5 nM enzyme. Ac-Phe-Arg-AMC (KM^app≈12 1M) and D-Val-Leu-Lys-AMC (KM^app≈4 1M) were used as the substrates. Routinely, Ac-FR-AMC was used at a concentration equivalent to KM^app and D-Val-Leu-Lys-AMC was used at a concentration of 25 μM. The rate of conversion of substrate to product was derived from the slope of the increase in fluorescence monitored continuously over time.
(§2) The apparent inhibition constant (Ki) for each compound was determined on the basis that inhibition was reversible and occurred by a pure-competitive mechanism. The Ki values were calculated, from the dependence of enzyme activity as a function of inhibitor concentration, by direct regression analysis (Prism v 3.02) using Equation 2 (Cornish-Bowden, A., 1995.). [formula] […]
(§3) In situations where the apparent dissociation constant (Ki^app) approached the enzyme concentrations, the Ki^app values were calculated using a quadratic solution in the form described by Equation 3 (Morrison, J. F. Trends Biochem. Sci., 7, 102-105, 1982; Morrison, J. F. Biochim. Biophys. Acta, 185, 269-286, 1969; Stone, S.R. and Hofsteenge, J. Biochemistry, 25, 4622-4628, 1986). […]

Bovine Cathepsin S = target: T2, Bovine Cathepsin S (Bos taurus, UniProt P25326); test: Cathepsin peptidase activity assay (Ki), bovine cathepsin S; assay type: biochemical; conditions: pH 6.5, 25±1° C.
T2 construct: purchased CN Biosciences
T2 sequence (P25326 115-331): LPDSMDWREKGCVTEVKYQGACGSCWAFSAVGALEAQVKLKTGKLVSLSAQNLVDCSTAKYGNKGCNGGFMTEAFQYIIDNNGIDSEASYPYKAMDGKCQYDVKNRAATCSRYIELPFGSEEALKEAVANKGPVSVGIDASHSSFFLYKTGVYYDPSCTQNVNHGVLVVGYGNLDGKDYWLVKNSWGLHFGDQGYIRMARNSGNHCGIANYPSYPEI
Method: as §1
(§4) Bovine cathepsin S, human cathepsin L, human cathepsin H and human cathepsin B were obtained from CN Biosciences. Recombinant human cathepsin S, human cathepsin K and human cathepsin X were obtained from Dr. Boris Turk (Josef Stefan Institute, Ljubljana, Slovenia). Unless otherwise stated, all peptidase activity assays were carried out in 10 mM bis-tris-propane (BTP), pH 6.5 containing 1 mM EDTA, 5 mM 2-mercaptoethanol and 1 mM CaCl2. Human cathepsin H activity assays were carried out in 10 mM BTP pH 6.5, 142 MM NaCl2 1 mM CaCl2, 1 mM EDTA, 1 mM DTr, 0.035 mM Zwittergent 3-16. […] The rate of conversion of substrate to product was derived from the slope of the increase in fluorescence monitored continuously over time.
as §2, with “1995.).” for “1995.). [formula]”
as §3

Human Cathepsin L = target: T3, Human Cathepsin L (Homo sapiens, UniProt P07711); test: Cathepsin peptidase activity assay (Ki), human cathepsin L; assay type: biochemical; conditions: pH 6.5, 25±1° C.
T3 construct: purchased CN Biosciences
T3 sequence (P07711 114-333): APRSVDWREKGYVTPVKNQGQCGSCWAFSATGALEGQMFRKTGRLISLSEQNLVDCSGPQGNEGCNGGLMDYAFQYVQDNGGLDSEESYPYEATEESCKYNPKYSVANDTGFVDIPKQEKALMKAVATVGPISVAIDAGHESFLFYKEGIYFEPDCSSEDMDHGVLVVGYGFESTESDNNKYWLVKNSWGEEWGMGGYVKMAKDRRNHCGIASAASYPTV
Method: as §1, §4
as §2, with “1995.).” for “1995.). [formula]”
as §3

Human Cathepsin K = target: T4, Human Cathepsin K (Homo sapiens, UniProt P43235); test: Cathepsin peptidase activity assay (Ki), human cathepsin K; assay type: biochemical; conditions: pH 5.5, 25±1° C.
T4 construct: purchased Dr. Boris Turk (Josef Stefan Institute, Ljubljana, Slovenia)
T4 sequence (P43235 115-329): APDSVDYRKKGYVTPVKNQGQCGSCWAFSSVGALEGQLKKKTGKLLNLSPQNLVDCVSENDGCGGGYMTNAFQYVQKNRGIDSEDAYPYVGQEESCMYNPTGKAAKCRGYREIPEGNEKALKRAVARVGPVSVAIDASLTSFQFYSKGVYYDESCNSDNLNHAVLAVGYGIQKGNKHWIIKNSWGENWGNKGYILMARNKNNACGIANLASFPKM
Method: as §1, §4
as §2, with “1995.).” for “1995.). [formula]”
as §3

[1] = test system: Trypanosoma cruzi-infected mammalian cell cultures; conditions: addition to infected mammalian cell cultures; cited from earlier work
[2] = test system: Trypanosoma cruzi infection; conditions: acute phase of infection; cited from earlier work

Ki (Cruzipain) [µM]	Ki (Bovine Cathepsin S) [µM]	Ki (Human Cathepsin L) [µM]	Ki (Human Cathepsin K) [µM]	Structure (SMILES)	effect on parasite replication and differentiation [1]	cure [2] [%]
> 20	> 50	< 5	> 100	C[C@H]1OCC(=O)[C@]1(C)NC(=O)[C@H](Cc1ccc(O)cc1)NC(=O)c1cccc2ccccc12 [Example 27, (2R, 3R) Naphthalene-1-carboxylic acid [1-(2,3-dimethyl-4-oxo-tetrahydrofuran-3-ylcarbamoyl)-2-(4-hydroxyphenyl)-ethyl]-amide]	–	–
> 50	< 2	> 50	> 50	C[C@H]1OCC(=O)[C@]1(C)NC(=O)[C@H](CC1CCCCC1)NC(=O)c1ccoc1 [Example 19, (2R, 3R) Furan-3-carboxylic acid [2-cyclohexyl-1-(2,3-dimethyl-oxo-tetrahydrofuran-3-ylcaxbamoyl)-ethyl]-amide]	–	–
< 2	> 50	> 50	> 100	C[C@H]1OCC(=O)[C@]1(C)NC(=O)[C@H](Cc1ccc(O)cc1)NC(=O)c1csc(-c2cccnc2)n1 [Example 6, (2R, 3R) 2-Pyridin-3-yl-thiazole4-carboxylic acid [1-(2,3-dimethyl-4oxo-tetrahydrofuran-3-ylcarbamoyl)-2-(4-hydroxyphenyl)-ethyl]-amide]	–	–

Second part, the compound before the results:

Structure (SMILES)	Ki (Cruzipain) [µM]	Ki (Bovine Cathepsin S) [µM]	Ki (Human Cathepsin L) [µM]	Ki (Human Cathepsin K) [µM]	effect on parasite replication and differentiation [1]	cure [2] [%]
CC(NC(=O)C(Cc1ccccc1)NC(=O)OCc1ccccc1)C(=O)CF (stereo not drawn) [Z-Phe-Ala-FMK]	–	–	–	–	blocked replication and differentiation of the parasite	–
O=C(Cn1ccnc1[N+](=O)[O-])NCc1ccccc1 [benznidazole]	–	–	–	–	–	60
